Measured values: US20250326753A1, “DUAL CXCR4-BTK INHIBITORS” (X4 Pharmaceuticals, Inc., priority 2022, published 2025)

Experiments:
Type in all cases: biochemical
ERBB4 = biological target: T1, ERBB4 (Homo sapiens, UniProt Q15303); assay: PanQinase kinase panel: ERBB4; settings: read-out: INHIBITORY EFFECT @ 1 uM: ERBB4
T1 construct: purchased Reaction Biology Europe GmbH
Description: (§1) Screening procedures were performed in accordance with the company's on-line protocol [accessed on-line Mar.
(§2) For each kinase, the median value of the cpm of three wells was defined as “low control” (n=3). This value reflects unspecific binding of radioactivity to the plate in the absence of a protein kinase but in the presence of the substrate. Additionally, for each kinase the median value of the cpm of three other wells was taken as the “high control,” i.e. full activity in the absence of any inhibitor (n=3). The difference between high and low control of each enzyme was taken as 100% activity.
As part of the data evaluation the low control of each kinase was subtracted from the high control value as well as from their corresponding “compound values”.

PDGFRalpha = biological target: T2, PDGFRalpha (Homo sapiens, UniProt P16234); assay: PanQinase kinase panel: PDGFRalpha; settings: read-out: INHIBITORY EFFECT @ 1 uM: PDGFRalpha
T2 construct: purchased Reaction Biology Europe GmbH
T2 sequence (P16234 24-1089): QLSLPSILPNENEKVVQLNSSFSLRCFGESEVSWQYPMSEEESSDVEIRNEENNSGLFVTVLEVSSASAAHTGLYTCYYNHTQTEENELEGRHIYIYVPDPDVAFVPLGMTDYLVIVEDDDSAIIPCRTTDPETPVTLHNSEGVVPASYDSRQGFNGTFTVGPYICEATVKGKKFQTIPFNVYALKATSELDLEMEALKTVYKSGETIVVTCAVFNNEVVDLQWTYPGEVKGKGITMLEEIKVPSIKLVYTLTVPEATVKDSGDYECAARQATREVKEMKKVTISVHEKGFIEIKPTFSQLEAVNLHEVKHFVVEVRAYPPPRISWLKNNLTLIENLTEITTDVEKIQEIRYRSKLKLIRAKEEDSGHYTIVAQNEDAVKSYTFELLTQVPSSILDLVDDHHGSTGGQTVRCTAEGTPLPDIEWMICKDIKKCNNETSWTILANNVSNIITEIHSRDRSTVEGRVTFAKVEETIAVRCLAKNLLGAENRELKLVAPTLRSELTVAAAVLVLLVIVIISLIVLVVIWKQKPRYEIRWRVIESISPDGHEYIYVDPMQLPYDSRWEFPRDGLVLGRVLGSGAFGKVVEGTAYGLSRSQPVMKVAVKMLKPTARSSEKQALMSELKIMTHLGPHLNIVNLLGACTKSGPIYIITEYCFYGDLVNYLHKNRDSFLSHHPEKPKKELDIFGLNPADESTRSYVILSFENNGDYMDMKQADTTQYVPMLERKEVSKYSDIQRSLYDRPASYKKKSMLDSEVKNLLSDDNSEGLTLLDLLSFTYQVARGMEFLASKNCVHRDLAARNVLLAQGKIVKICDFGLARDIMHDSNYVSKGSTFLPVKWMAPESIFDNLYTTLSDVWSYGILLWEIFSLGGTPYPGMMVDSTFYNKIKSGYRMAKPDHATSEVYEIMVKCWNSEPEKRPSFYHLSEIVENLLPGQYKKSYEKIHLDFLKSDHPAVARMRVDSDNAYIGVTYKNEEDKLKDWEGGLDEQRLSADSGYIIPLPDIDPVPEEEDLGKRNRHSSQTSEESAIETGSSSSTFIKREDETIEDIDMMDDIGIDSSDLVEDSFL
Description: as §1, §2
(§3) As part of the data evaluation the low control of each kinase was subtracted from the high control value as well as from their corresponding “compound values”. The residual activity (in %) for each compound well was calculated by using the following formula: Res. Activity (%)=100×[(signal of compound−low control)/(high control−low control)].

EPHA6 = biological target: T3, EPHA6 (Homo sapiens, UniProt Q9UF33); assay: PanQinase kinase panel: EPHA6; settings: read-out: INHIBITORY EFFECT @ 1 uM: EPHA6
T3 construct: purchased Reaction Biology Europe GmbH
T3 sequence (Q9UF33 23-1036): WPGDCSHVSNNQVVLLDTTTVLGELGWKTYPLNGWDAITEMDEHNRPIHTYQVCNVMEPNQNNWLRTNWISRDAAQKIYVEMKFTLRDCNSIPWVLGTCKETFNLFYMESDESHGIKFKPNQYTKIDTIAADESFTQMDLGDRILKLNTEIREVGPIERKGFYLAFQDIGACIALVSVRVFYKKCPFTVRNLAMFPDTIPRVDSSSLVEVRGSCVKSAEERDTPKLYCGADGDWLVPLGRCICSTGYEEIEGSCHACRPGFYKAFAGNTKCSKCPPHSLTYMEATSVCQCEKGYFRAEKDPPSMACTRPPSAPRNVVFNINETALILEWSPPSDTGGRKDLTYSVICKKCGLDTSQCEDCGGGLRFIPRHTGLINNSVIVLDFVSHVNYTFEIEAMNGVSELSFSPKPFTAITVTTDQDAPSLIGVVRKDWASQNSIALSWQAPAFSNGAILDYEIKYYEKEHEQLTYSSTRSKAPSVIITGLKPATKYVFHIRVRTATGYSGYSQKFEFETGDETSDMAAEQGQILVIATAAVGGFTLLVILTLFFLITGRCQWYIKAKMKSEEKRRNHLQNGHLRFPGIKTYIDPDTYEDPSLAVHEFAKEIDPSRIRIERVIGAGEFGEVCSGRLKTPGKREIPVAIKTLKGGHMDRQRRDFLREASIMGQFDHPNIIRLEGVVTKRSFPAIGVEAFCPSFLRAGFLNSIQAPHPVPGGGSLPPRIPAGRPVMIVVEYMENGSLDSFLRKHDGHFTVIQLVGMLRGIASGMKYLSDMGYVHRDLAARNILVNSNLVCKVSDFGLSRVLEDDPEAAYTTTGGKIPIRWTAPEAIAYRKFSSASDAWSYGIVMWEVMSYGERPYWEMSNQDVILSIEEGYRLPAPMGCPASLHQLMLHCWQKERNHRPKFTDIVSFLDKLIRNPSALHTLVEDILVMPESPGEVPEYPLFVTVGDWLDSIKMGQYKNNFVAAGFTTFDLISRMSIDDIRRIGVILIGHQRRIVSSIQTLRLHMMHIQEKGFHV
Description: as §1, §2, §3

RIPK5 = biological target: T4, RIPK5 (Homo sapiens, UniProt Q6XUX3); assay: PanQinase kinase panel: RIPK5; settings: read-out: INHIBITORY EFFECT @ 1 uM: RIPK5
T4 construct: purchased Reaction Biology Europe GmbH
T4 sequence (Q6XUX3 1-929): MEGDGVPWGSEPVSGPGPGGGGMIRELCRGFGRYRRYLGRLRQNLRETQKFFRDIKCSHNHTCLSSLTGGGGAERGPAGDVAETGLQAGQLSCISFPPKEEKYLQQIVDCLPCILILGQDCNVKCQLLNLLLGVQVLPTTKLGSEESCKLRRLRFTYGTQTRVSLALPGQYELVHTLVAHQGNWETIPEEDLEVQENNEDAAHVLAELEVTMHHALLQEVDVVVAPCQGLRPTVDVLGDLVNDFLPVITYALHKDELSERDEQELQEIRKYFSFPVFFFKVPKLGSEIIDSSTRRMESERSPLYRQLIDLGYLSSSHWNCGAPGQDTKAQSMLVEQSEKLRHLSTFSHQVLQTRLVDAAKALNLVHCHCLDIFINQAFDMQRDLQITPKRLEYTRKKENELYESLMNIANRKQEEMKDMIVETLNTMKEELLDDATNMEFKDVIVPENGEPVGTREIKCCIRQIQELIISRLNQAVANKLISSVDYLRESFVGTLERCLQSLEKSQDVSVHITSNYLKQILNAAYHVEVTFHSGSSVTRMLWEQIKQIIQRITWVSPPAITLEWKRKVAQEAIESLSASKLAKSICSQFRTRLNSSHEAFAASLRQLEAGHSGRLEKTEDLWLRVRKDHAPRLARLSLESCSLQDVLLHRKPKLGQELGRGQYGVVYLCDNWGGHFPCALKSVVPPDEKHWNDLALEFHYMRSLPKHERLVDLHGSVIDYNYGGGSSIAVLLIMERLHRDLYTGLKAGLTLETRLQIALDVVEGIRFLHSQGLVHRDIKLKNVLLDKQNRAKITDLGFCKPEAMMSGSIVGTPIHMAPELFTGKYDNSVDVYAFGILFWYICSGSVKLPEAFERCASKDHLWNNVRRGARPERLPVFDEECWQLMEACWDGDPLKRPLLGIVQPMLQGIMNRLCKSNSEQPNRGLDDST
Description: as §1, §2, §3

PAK1 = biological target: T5, PAK1 (Homo sapiens, UniProt Q13153); assay: PanQinase kinase panel: PAK1; settings: read-out: INHIBITORY EFFECT @ 1 uM: PAK1
T5 construct: purchased Reaction Biology Europe GmbH
T5 sequence (Q13153 whole entry): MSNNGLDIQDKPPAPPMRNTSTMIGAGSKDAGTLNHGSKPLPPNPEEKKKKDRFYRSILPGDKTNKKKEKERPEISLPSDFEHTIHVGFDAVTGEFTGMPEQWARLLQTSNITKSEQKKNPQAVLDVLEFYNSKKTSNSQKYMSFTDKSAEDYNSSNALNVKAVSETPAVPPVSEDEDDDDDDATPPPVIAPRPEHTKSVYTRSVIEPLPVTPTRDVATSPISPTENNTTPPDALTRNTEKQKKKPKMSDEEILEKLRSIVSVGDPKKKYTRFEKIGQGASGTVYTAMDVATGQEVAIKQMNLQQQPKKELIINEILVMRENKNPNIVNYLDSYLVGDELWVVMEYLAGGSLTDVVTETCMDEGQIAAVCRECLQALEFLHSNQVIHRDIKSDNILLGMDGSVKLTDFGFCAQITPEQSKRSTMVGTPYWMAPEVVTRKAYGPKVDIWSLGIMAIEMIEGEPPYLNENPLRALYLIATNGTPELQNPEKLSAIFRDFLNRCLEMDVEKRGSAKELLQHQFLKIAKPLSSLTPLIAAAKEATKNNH
Description: as §1, §2, §3

TRKC = biological target: T6, TRKC (Homo sapiens, UniProt Q16288); assay: PanQinase kinase panel: TRKC; settings: read-out: INHIBITORY EFFECT @ 1 uM: TRKC
T6 construct: purchased Reaction Biology Europe GmbH
T6 sequence (Q16288 32-839): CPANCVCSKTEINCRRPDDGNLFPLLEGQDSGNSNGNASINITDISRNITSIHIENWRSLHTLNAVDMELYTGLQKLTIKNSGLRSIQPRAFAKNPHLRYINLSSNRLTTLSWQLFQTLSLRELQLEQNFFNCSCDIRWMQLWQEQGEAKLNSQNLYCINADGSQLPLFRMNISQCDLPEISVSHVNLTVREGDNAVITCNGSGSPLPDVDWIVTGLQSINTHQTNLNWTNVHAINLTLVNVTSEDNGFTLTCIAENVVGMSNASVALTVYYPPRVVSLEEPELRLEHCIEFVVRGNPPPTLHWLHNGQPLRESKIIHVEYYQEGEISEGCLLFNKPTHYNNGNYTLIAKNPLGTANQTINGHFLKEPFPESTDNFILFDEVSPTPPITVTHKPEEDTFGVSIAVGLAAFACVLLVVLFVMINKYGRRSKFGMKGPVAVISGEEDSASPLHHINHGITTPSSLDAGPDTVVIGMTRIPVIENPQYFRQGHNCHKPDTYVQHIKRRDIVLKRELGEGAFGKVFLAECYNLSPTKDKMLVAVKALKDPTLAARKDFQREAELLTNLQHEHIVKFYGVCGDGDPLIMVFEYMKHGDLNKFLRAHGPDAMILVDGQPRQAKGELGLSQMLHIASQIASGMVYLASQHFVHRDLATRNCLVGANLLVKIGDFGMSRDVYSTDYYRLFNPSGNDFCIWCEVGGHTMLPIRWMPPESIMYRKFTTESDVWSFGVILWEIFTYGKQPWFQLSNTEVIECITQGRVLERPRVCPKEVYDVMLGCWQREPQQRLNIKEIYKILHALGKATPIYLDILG
Description: as §1, §2, §3

PKN3 = biological target: T7, PKN3 (Homo sapiens, UniProt Q6P5Z2); assay: PanQinase kinase panel: PKN3; settings: read-out: INHIBITORY EFFECT @ 1 uM: PKN3
T7 construct: purchased Reaction Biology Europe GmbH
T7 sequence (Q6P5Z2 whole entry): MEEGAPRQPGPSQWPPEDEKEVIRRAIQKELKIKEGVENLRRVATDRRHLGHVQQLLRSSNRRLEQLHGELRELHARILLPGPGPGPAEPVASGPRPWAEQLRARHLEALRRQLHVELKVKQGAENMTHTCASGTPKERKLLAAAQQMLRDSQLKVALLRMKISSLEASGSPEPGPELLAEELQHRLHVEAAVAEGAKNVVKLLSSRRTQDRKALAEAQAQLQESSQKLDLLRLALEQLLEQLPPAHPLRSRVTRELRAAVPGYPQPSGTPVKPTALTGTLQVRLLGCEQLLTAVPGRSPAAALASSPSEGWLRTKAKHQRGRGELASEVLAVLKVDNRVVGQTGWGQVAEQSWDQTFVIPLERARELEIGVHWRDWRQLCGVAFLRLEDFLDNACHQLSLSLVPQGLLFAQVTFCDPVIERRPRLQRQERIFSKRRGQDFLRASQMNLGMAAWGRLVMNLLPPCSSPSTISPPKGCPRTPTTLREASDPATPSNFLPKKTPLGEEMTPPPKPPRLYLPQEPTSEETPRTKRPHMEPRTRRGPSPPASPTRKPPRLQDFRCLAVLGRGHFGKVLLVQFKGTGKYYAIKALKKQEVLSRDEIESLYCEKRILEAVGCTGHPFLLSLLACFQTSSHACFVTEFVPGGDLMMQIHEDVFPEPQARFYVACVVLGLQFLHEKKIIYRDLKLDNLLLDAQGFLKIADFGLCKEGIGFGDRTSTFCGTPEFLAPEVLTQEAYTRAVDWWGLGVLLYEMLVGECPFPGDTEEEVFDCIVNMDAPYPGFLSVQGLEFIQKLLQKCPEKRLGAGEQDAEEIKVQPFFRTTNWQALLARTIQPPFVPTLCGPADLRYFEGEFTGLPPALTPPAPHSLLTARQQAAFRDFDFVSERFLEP
Description: as §1, §2, §3

[1] = test system: 340 wild-type protein kinases; assay: PanQinase wild-type kinase panel, selectivity score; settings: 1 μM; for Selectivity Score: share of kinases with residual activity <50%, 340 wild-type protein kinase assays
Description: as §1
The selectivity score for a particular compound at a particular concentration was calculated by using the following formula: Selectivity Score=(count of data points <50%)/(total number of data points).

T1 sequence (Q15303 26-1308): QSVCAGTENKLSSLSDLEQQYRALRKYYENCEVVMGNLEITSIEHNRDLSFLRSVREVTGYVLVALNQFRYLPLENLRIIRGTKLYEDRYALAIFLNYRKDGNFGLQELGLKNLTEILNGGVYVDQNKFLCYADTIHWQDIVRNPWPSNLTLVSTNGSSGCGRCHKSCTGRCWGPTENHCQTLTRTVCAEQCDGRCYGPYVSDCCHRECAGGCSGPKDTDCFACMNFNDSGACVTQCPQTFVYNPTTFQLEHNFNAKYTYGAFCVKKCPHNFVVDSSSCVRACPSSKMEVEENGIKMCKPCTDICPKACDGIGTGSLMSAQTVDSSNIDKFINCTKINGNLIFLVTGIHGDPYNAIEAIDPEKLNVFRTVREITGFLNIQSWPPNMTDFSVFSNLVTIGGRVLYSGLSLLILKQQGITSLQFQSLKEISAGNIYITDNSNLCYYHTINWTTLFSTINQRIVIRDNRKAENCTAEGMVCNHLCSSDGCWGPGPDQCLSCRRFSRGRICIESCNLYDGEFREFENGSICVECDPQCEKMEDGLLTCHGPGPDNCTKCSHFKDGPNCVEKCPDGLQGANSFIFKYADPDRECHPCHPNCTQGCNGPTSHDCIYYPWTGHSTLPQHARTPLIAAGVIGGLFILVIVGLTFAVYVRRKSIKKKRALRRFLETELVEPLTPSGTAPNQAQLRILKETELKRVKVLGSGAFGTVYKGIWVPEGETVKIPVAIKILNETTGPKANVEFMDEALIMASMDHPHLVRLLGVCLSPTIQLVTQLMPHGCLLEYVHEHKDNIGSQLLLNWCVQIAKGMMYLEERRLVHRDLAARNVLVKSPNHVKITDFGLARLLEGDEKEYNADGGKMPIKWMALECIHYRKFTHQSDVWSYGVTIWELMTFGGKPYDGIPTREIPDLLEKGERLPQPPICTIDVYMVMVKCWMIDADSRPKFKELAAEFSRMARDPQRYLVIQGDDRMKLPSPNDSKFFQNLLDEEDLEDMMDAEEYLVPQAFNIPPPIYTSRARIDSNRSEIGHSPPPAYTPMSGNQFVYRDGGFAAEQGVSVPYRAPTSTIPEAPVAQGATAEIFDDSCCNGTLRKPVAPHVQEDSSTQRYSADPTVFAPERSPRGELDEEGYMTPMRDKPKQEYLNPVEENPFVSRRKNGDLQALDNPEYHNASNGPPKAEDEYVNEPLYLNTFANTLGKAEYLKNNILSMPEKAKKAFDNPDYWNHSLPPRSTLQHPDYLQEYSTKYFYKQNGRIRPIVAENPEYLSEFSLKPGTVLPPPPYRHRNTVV

| Selectivity Score [1] | SMILES | inhibition at 1 µM (ERBB4) [%] | inhibition at 1 µM (PDGFRalpha) [%] | inhibition at 1 µM (EPHA6) [%] | inhibition at 1 µM (RIPK5) [%] | inhibition at 1 µM (PAK1) [%] | inhibition at 1 µM (TRKC) [%] | inhibition at 1 µM (PKN3) [%] | kinase selectivity profile ([1]; panel of approximately 336 wild-type kinases, in words) |
| --- | --- | --- | --- | --- | --- | --- | --- | --- | --- |
| – | COc1ccc(F)cc1C(=O)NCc1ccc(-c2nn([C@@H](C)C(F)(F)F)c(N)c2C(N)=O)cc1 [LOXO-305, pirtobrutinib] | 50 to 69 | < 50 | < 50 | < 50 | < 50 | 50 to 69 | < 50 | – |
| 0.032 | Cc1cc(-c2ccnc(Nc3cnn(CCN4[C@@H](c5ncccc5C)CCC[C@H]4c4ncccc4C)c3)n2)ccc1CNC(=O)N1CC(OC(C)C)C1 [Compound I-11] | – | – | – | – | – | – | – | – |
| 0.265 | Cc1cccnc1[C@H]1CCC[C@@H](c2ncccc2C)N1CCCCNC(=O)[C@@H]1CC[C@@H](Nc2ncnc3[nH]cc(C(=O)c4ccc(Oc5ccccc5)cc4Cl)c23)CO1 [Compound I-16] | – | – | – | – | – | – | – | – |
| – | C=CC(=O)N1CCC([C@@H]2CCNc3c(C(N)=O)c(-c4ccc(Oc5ccccc5)cc4)nn32)CC1 [Zanubrutinib, (7S)-2-(4-phenoxyphenyl)-7-(1-prop-2-enoylpiperidin-4-yl)-4,5,6,7-tetrahydropyrazolo[1,5-a]pyrimidine-3-carboxamide] | – | < 50 | < 50 | < 50 | < 50 | < 50 | < 50 | – |
| 0.221 | Cc1cccnc1[C@H]1CCC[C@@H](c2ncccc2C)N1CCCCNC(=O)OC[C@@H]1CC[C@@H](Nc2ncnc3[nH]cc(C(=O)c4ccc(Oc5ccccc5)cc4Cl)c23)CO1 [Compound I-18] | – | – | – | – | – | – | – | – |
| – | O=C(c1ccc(Oc2ccccc2)cc1Cl)c1c[nH]c2ncnc(N[C@@H]3CC[C@@H](CO)OC3)c12 [ARQ-531, (2-chloro-4-phenoxyphenyl) (4-(((3R,6S)-6-(hydroxymethyl)tetrahydro-2H-pyran-3-yl)amino)-7H-pyrrolo[2,3-d]pyrimidin-5-yl) methanone] | 90 to 100 | 70 to 89 | 50 to 69 | 70 to 89 | 50 to 69 | < 50 | 50 to 69 | – |

| SMILES | Selectivity Score [1] | inhibition at 1 µM (ERBB4) [%] | inhibition at 1 µM (PDGFRalpha) [%] | inhibition at 1 µM (EPHA6) [%] | inhibition at 1 µM (RIPK5) [%] | inhibition at 1 µM (PAK1) [%] | inhibition at 1 µM (TRKC) [%] | inhibition at 1 µM (PKN3) [%] | kinase selectivity profile ([1]; panel of approximately 336 wild-type kinases, in words) |
| --- | --- | --- | --- | --- | --- | --- | --- | --- | --- |
| Cc1cccnc1[C@H]1CCC[C@@H](c2ncccc2C)N1CCN1CCN(C(=O)c2ccc(-c3cc4c(-c5cccc(NC(=O)c6ccccc6)c5C)ncnc4[nH]3)cc2)CC1 [Compound I-10, N-(3-(6-(4-(4-(2-((2R,6S)-2,6-bis(3-methylpyridin-2-yl)piperidin-1-yl)ethyl)piperazine-1-carbonyl)phenyl)-7H-pyrrolo[2,3-d]pyrimidin-4-yl)-2-methylphenyl)benzamide] | 0.053 | < 50 | < 50 | < 50 | < 50 | < 50 | < 50 | 50 to 69 | surprisingly high selectivity for BTK inhibition |
